The target of assay [1] is XIAP BIR3 (His-BIR3 (241-356, XIAP)) (Homo sapiens (Human), UniProt P98170). The assay can be described thus: XIAP-BIR3/SMAC Homogeneous Time Resolved Fluorescence (HTRF) Assay. The format is binding. As to conditions: 1 nM N-His-BIR3, 5 nM fluorescein labeled SMAC peptide; read-out: XIAP BIR3 FRET IC50. For orientation: Time-resolved FRET reads energy transfer from a long-lived donor to a nearby acceptor.

The target in assay [2] is XIAP BIR2-3 (His-BIR2-3 (125-356, C202A/C213G, XIAP)) (Homo sapiens (Human), UniProt P98170, C202A/C213G). The assay can be described thus: XIAP-BIR2-3 Dimeric SMAC Peptide Homogeneous Time Resolved Fluorescence (HTRF) Assay. The class given is binding. The note with it: 0.5 nM N-His-BIR2-3, 20 nM fluorescein labeled dimeric SMAC peptide; read-out: XIAP BIR2-3 FRET IC50.
Sequence of XIAP BIR2-3 (His-BIR2-3 (125-356, C202A/C213G, XIAP)) (P98170 125-356 C202A/C213G): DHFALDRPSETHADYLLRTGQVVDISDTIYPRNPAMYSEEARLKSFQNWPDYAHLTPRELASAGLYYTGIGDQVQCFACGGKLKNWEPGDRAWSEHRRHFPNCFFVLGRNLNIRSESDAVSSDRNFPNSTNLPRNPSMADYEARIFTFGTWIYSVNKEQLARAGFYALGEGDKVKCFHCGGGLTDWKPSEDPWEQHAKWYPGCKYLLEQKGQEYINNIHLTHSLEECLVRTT

Sequence of XIAP BIR3 (His-BIR3 (241-356, XIAP)) (P98170 241-356): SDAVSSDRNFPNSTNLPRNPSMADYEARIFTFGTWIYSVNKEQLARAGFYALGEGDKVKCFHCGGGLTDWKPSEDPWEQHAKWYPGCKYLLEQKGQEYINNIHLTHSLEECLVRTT

Usually IC50 stands for the concentration that inhibits the measured activity by half. Regarding `CN[C@@H](C)C(=O)N[C@H](C(=O)N1CC[C@@H]2[C@H]1[C@@H](Cc1ccc3ccccc3c1)C(=O)N[C@H](C(=O)O)Cc1ccc(cc1)OCc1cn(nn1)[C@@H]1CCN(C(=O)[C@@H](NC(=O)[C@H](C)NC)C(C)(C)C)[C@@H]1C(=O)C[C@@H](Cc1ccc3ccccc3c1)C(=O)N[C@H](C(=O)OC)Cc1ccc(cc1)OCc1cn2nn1)C(C)(C)C` [Example 7], the IC50 was found to be 29 nM in assay [1] and 6.5 nM in assay [2]. In the same order, the values of `CN[C@@H](C)C(=O)N[C@H](C(=O)N1CC[C@H]2OCc3cn(nn3)CCC[C@H](C(=O)O)NC(=O)[C@H](Cc3ccc4ccccc4c3)NC(=O)[C@@H]3[C@@H](CCN3C(=O)[C@@H](NC(=O)[C@H](C)NC)C(C)(C)C)OCc3cn(nn3)CCC[C@H](C(=O)O)NC(=O)[C@H](Cc3ccc4ccccc4c3)NC(=O)[C@H]21)C(C)(C)C` [Example 3] are 1.9 nM and 0.8 nM.

As to `CN[C@@H](C)C(=O)N[C@H](C(=O)N1CC[C@@H]2[C@H]1C(=O)N[C@@H](Cc1ccc3ccccc3c1)C(=O)N[C@H](C(=O)O)Cc1ccc(cc1)OCc1cn(nn1)[C@@H]1CCN(C(=O)[C@@H](NC(=O)[C@H](C)NC)C(C)(C)C)[C@@H]1C(=O)N[C@@H](Cc1ccc3ccccc3c1)C(=O)N[C@H](c1nc(=S)o[nH]1)Cc1ccc(cc1)OCc1cn2nn1)C(C)(C)C` [Example 17], the IC50 in assay [1] stood at 3.2 nM; in assay [2] it was 0.8 nM. In the same order, the values of `CN[C@@H](C)C(=O)N[C@H](C(=O)N1CC[C@@H]2[C@H]1C(=O)N[C@@H](Cc1ccc3ccccc3c1)C(=O)N[C@H](C(=O)O)Cc1ccc(cc1)OCc1cn(nn1)[C@@H]1CCN(C(=O)[C@@H](NC(=O)[C@H](C)NC)C(C)(C)C)[C@@H]1C(=O)N[C@@H](Cc1ccc3ccccc3c1)C(=O)N[C@H](c1nc(=O)o[nH]1)Cc1ccc(cc1)OCc1cn2nn1)C(C)(C)C` [Example 20] are 10.1 nM and 2.9 nM. In the same order, the values of `CN[C@@H](C)C(=O)N[C@H](C(=O)N1CC[C@@H]2[C@H]1C(=O)N[C@@H](Cc1ccc3ccccc3c1)C(=O)N[C@H](C(=O)O)Cc1ccc(cc1)OCc1cn(nn1)[C@@H]1CCN(C(=O)[C@@H](NC(=O)[C@H](C)NC)C(C)(C)C)[C@@H]1C(=O)N[C@@H](Cc1ccc3ccccc3c1)C(=O)N[C@H](C(=O)O)c1ccc(cc1)OCc1cn2nn1)C(C)(C)C` [Example 1] are 4.9 nM and 1.1 nM. In the same order, the values of `CN[C@@H](C)C(=O)N[C@H](C(=O)N1CC[C@@H]2[C@H]1C(=O)N[C@@H](Cc1ccc3ccccc3c1)C(=O)N[C@H](C(=O)O)Cc1ccc(cc1)OCc1cn(nn1)[C@@H]1CCN(C(=O)[C@@H](NC(=O)[C@H](C)NC)C(C)(C)C)[C@@H]1C(=O)N[C@@H](Cc1ccc3ccccc3c1)C(=O)N[C@H](c1nc(=O)o[nH]1)Cc1ccc(cc1)OCc1cn2nn1)C(C)(C)C` [Example 19] are 2 nM and 0.4 nM.

In the case of `CN[C@@H](C)C(=O)N[C@H](C(=O)N1CC[C@@H]2[C@H]1C(=O)NC(=O)C[C@@H](Cc1ccc3ccccc3c1)C(=O)N[C@H](C(=O)O)Cc1ccc(cc1)OCc1cn(nn1)[C@@H]1CCN(C(=O)[C@@H](NC(=O)[C@H](C)NC)C(C)(C)C)[C@@H]1C(=O)N[C@@H](Cc1ccc3ccccc3c1)C(=O)N[C@H](c1n[nH]c(=O)o1)Cc1ccc(cc1)OCc1cn2nn1)C(C)(C)C` [Example 14], the half-maximal inhibitory concentration (IC50) is 8.6 nM in assay [1] and 1.3 nM in assay [2]. In the case of `CN[C@@H](C)C(=O)N[C@H](C(=O)N1CC[C@@H]2[C@H]1C(=O)N[C@@H](Cc1ccc3ccccc3c1)C(=O)N[C@H](C(=O)O)Cc1ccc(cc1)OCc1cn(nn1)[C@@H]1CCN(C(=O)[C@@H](NC(=O)[C@H](C)NC)C(C)(C)C)[C@@H]1C(=O)N[C@@H](Cc1ccc3ccccc3c1)C(=O)N[C@H](C(=O)NS(=O)(=O)c1ccccn1)Cc1ccc(cc1)OCc1cn2nn1)C(C)(C)C` [Example 10], the IC50 in assay [1] was found to be 63.1 nM; in assay [2] it was 16.9 nM. In the same order, the values of `CN[C@@H](C)C(=O)N[C@H](C(=O)N1CC[C@@H]2[C@H]1C(=O)N[C@@H](Cc1ccc3ccccc3c1)C(=O)N[C@H](C(=O)O)Cc1ccc(cc1)OCc1cn(nn1)[C@@H]1CCN(C(=O)[C@@H](NC(=O)[C@H](C)NC)C(C)(C)C)[C@@H]1C(=O)N[C@@H](Cc1ccc3ccccc3c1)C(=O)N[C@H](c1nnn[nH]1)Cc1ccc(cc1)OCc1cn2nn1)C(C)(C)C` (single isomer, unassigned) [Example 16] are 4.4 nM and 2.2 nM. As for `CN[C@@H](C)C(=O)N[C@H](C(=O)N1CC[C@@H]2[C@H]1C(=O)N[C@@H](Cc1ccc3ccccc3c1)C(=O)N[C@H](C(=O)O)Cc1ccc(cc1)OCc1cn(nn1)[C@@H]1CCN(C(=O)[C@@H](NC(=O)[C@H](C)NC)C(C)(C)C)[C@@H]1C(=O)N[C@@H](Cc1ccc3ccccc3c1)C(=O)N[C@H](c1nc(=S)o[nH]1)Cc1ccc(cc1)OCc1cn2nn1)C(C)(C)C` [Example 18], the 50% inhibitory concentration (IC50) in assay [2] amounted to 2.2 nM. For `CN[C@@H](C)C(=O)N[C@H](C(=O)N1CC[C@@H]2[C@H]1C(=O)N[C@@H](Cc1ccc3ccccc3c1)C(=O)N[C@H](C(=O)O)Cc1ccc(cc1)OCc1cn(nn1)[C@@H]1CCN(C(=O)[C@@H](NC(=O)[C@H](C)NC)C(C)(C)C)[C@@H]1C(=O)N[C@@H](Cc1ccc3ccccc3c1)C(=O)N[C@H](c1nnn[nH]1)Cc1ccc(cc1)OCc1cn2nn1)C(C)(C)C` (single isomer, unassigned) [Example 15], the half-maximal inhibitory concentration (IC50) in assay [1] is 1.9 nM; in assay [2], 0.3 nM. Regarding `CN[C@@H](C)C(=O)N[C@H](C(=O)N1CC[C@@H]2[C@H]1C(=O)N[C@@H](Cc1ccc3ccccc3c1)C(=O)N[C@H](C(=O)O)Cc1ccc(cc1)OCc1cn(nn1)[C@@H]1CCN(C(=O)[C@@H](NC(=O)[C@H](C)NC)C(C)(C)C)[C@@H]1C(=O)N[C@@H](Cc1ccc3ccccc3c1)C(=O)N[C@H](C(=O)NS(=O)(=O)C1CC1)Cc1ccc(cc1)OCc1cn2nn1)C(C)(C)C` [Example 11], the IC50 was 10.3 nM in assay [1] and 1.3 nM in assay [2]. Taken in the same sequence, the figures for `CN[C@@H](C)C(=O)N[C@H](C(=O)N1CC[C@H]2OCc3cn(nn3)[C@H](C(=O)O)CCNC(=O)[C@H](Cc3ccc4ccccc4c3)NC(=O)[C@@H]3[C@@H](CCN3C(=O)[C@@H](NC(=O)[C@H](C)NC)C(C)(C)C)OCc3cn(nn3)[C@H](C(=O)O)CCNC(=O)[C@H](Cc3ccc4ccccc4c3)NC(=O)[C@H]21)C(C)(C)C` [Example 4] were 57.8 nM and 1.6 nM.

The values are drawn from US9605022B2, “Macrocyclic compounds for inhibition of inhibitors of apoptosis” (Ensemble Therapeutics Corporation, priority 2012, dated 2017).
